Assay results: PubChem BioAssay AID256 (DTP/NCI, 2004)
Several values for one entry are separate records, joined by “and”; a condition that tells them apart may be missing. Identical values can stand only once. Inconclusive results and toxic doses are left out. Rule for the calls: active = survival T/C of 150% or more; inactive = T/C below 125% in these data.

System: CD2F1 mice, L1210 leukemia ip, survival T/C
Assay: NCI In Vivo Anticancer Drug Screen. Data for tumor model L1210 Leukemia (intraperitoneal) in CD2F1 (CDF1) mice
Details: higher = longer survival
Procedure, shortened: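 In this screen, transplantable tumors were grown in mice given either the compound or its vehicle. Results were expressed as the treated measurement relative to the control measurement.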

[1] = endpoint: mean survival time, dose: 100.0 mg/kg/injection, schedule: Q04DX003 (ip), vehicle: saline with Tween-80
[2] = endpoint: mean survival time, dose: 200.0 mg/kg/injection, schedule: Q04DX003 (ip), vehicle: saline with Tween-80
[3] = endpoint: mean survival time, dose: 400.0 mg/kg/injection, schedule: Q04DX003 (ip), vehicle: saline with Tween-80
[4] = endpoint: mean survival time, dose: 100.0 mg/kg/injection, schedule: Q04DX003 (ip), vehicle: saline
[5] = endpoint: mean survival time, dose: 200.0 mg/kg/injection, schedule: Q04DX003 (ip), vehicle: saline
[6] = endpoint: mean survival time, dose: 400.0 mg/kg/injection, schedule: Q04DX003 (ip), vehicle: saline
[7] = endpoint: mean survival time, dose: 100.0 mg/kg/injection, schedule: Q01DX009 (ip), vehicle: saline with Tween-80
[8] = endpoint: mean survival time, dose: 200.0 mg/kg/injection, schedule: Q01DX009 (ip), vehicle: saline with Tween-80
[9] = endpoint: mean survival time, dose: 400.0 mg/kg/injection, schedule: Q01DX009 (ip), vehicle: saline with Tween-80
[10] = endpoint: mean survival time, dose: 50.0 mg/kg/injection, schedule: Q01DX009 (ip), vehicle: saline
[11] = endpoint: mean survival time, dose: 100.0 mg/kg/injection, schedule: Q01DX009 (ip), vehicle: saline
[12] = endpoint: mean survival time, dose: 200.0 mg/kg/injection, schedule: Q01DX009 (ip), vehicle: saline

Measured: T/C

O=C1C=C2C(=CCOC2O)O1 (stereo unspecified)
inactive: endpoint: mean survival time, dose: 0.25 mg/kg/injection, schedule: Q01DX009 (ip), vehicle: Klucel (hydroxypropylcellulose) (HPC) 108 % of control | endpoint: mean survival time, dose: 0.5 mg/kg/injection, schedule: Q01DX009 (ip), vehicle: Klucel (hydroxypropylcellulose) (HPC) 89 % of control and 106 % of control | endpoint: mean survival time, dose: 0.75 mg/kg/injection, schedule: Q01DX009 (ip), vehicle: Klucel (hydroxypropylcellulose) (HPC) 103 % of control | endpoint: mean survival time, dose: 1.0 mg/kg/injection, schedule: Q01DX009 (ip), vehicle: Klucel (hydroxypropylcellulose) (HPC) 101 % of control and 104 % of control | endpoint: mean survival time, dose: 1.5 mg/kg/injection, schedule: Q01DX009 (ip), vehicle: Klucel (hydroxypropylcellulose) (HPC) 104 % of control | endpoint: mean survival time, dose: 2.0 mg/kg/injection, schedule: Q01DX009 (ip), vehicle: Klucel (hydroxypropylcellulose) (HPC) 102 % of control and 103 % of control | endpoint: mean survival time, dose: 3.0 mg/kg/injection, schedule: Q01DX009 (ip), vehicle: Klucel (hydroxypropylcellulose) (HPC) 104 % of control | endpoint: mean survival time, dose: 4.0 mg/kg/injection, schedule: Q01DX009 (ip), vehicle: Klucel (hydroxypropylcellulose) (HPC) 95 % of control and 106 % of control | endpoint: mean survival time, dose: 6.0 mg/kg/injection, schedule: Q01DX009 (ip), vehicle: Klucel (hydroxypropylcellulose) (HPC) 96 % of control

Cc1nc(CCCCCCCC(=O)O)ccc1O
inactive: endpoint: mean survival time, dose: 100.0 mg/kg/injection, schedule: Q04DX002 (ip), vehicle: saline 94 % of control | endpoint: mean survival time, dose: 200.0 mg/kg/injection, schedule: Q04DX002 (ip), vehicle: saline 97 % of control | endpoint: mean survival time, dose: 400.0 mg/kg/injection, schedule: Q04DX002 (ip), vehicle: saline 109 % of control

O=c1nc(NCc2cccs2)ccn1C1OC(CO)C(O)C1O (stereo unspecified)
inactive: endpoint: median survival time, dose: 12.5 mg/kg/injection, schedule: Q01DX005 (ip), vehicle: water 104 % of control | endpoint: median survival time, dose: 25.0 mg/kg/injection, schedule: Q01DX005 (ip), vehicle: water 103 % of control | endpoint: median survival time, dose: 50.0 mg/kg/injection, schedule: Q01DX005 (ip), vehicle: water 103 % of control | endpoint: median survival time, dose: 100.0 mg/kg/injection, schedule: Q01DX005 (ip), vehicle: water 102 % of control | endpoint: median survival time, dose: 200.0 mg/kg/injection, schedule: Q01DX005 (ip), vehicle: water 102 % of control

CC1CC=CCC1/C=N\Nc1ccc([N+](=O)[O-])cc1[N+](=O)[O-] (stereo unspecified)
inactive: [1] 98 % of control | [2] 94 % of control | [3] 100 % of control

CC1CCCN(N=Nc2ccc(Br)cc2-c2nc(N)c3cc(Br)ccc3n2)C1 (stereo unspecified)
inactive: endpoint: mean survival time, dose: 100.0 mg/kg/injection, schedule: Q01DX001 (ip), vehicle: Klucel (hydroxypropylcellulose) (HPC) 103 % of control | endpoint: mean survival time, dose: 400.0 mg/kg/injection, schedule: Q01DX001 (ip), vehicle: Klucel (hydroxypropylcellulose) (HPC) 90 % of control

O=C(Cc1ccccn1)NCC(O)c1ccccc1 (stereo unspecified)
inactive: [4] 89 % of control | [5] 102 % of control | [6] 100 % of control

Brc1c2ccccc2c(Br)c2ccccc12
inactive: endpoint: mean survival time, dose: 100.0 mg/kg/injection, schedule: Q04DX002 (ip), vehicle: Klucel (hydroxypropylcellulose) (HPC) 86 % of control | endpoint: mean survival time, dose: 200.0 mg/kg/injection, schedule: Q04DX002 (ip), vehicle: Klucel (hydroxypropylcellulose) (HPC) 114 % of control | endpoint: mean survival time, dose: 400.0 mg/kg/injection, schedule: Q04DX002 (ip), vehicle: Klucel (hydroxypropylcellulose) (HPC) 86 % of control

CN(C)C(=O)c1ccc[n+](CC(=O)Nc2ccccc2)c1
inactive: [4] 103 % of control | [5] 101 % of control | [6] 103 % of control

O=C(CC(=O)c1ccccc1O)c1ccccc1
inactive: [7] 91 % of control | [8] 88 % of control | [9] 94 % of control

CCCCCOCC
inactive: endpoint: mean survival time, dose: 100.0 mg/kg/injection, schedule: Q04DX002 (ip), vehicle: saline with Tween-80 102 % of control | endpoint: mean survival time, dose: 200.0 mg/kg/injection, schedule: Q04DX002 (ip), vehicle: saline with Tween-80 98 % of control | endpoint: mean survival time, dose: 400.0 mg/kg/injection, schedule: Q04DX002 (ip), vehicle: saline with Tween-80 98 % of control

CN(C)c1ccc(/C=C\C(=O)c2ccccc2)cc1
inactive: [10] 109 % of control | [11] 97 % of control | [12] 106 % of control

CCN(CC)C(=O)/C=C/c1ccccc1
inactive: [1] 103 % of control | [2] 101 % of control | [3] 103 % of control

O=[N+]([O-])c1ccc(/C=C2\c3ccccc3-c3nc4ccccc4nc32)cc1
inactive: endpoint: mean survival time, dose: 75.0 mg/kg/injection, schedule: Q01DX009 (ip), vehicle: saline 86 % of control | endpoint: mean survival time, dose: 150.0 mg/kg/injection, schedule: Q01DX009 (ip), vehicle: saline 88 % of control | endpoint: mean survival time, dose: 300.0 mg/kg/injection, schedule: Q01DX009 (ip), vehicle: saline 95 % of control

O=C(Nc1cccc(Cl)c1)NC1CCC(CC2CCCCC2)CC1 (stereo unspecified)
inactive: [1] 95 % of control | [2] 95 % of control | [3] 100 % of control

CC1(C)CC1(Br)Br
inactive: endpoint: mean survival time, dose: 6.25 mg/kg/injection, schedule: Q01DX009 (ip), vehicle: saline with Tween-80 94 % of control and 112 % of control | endpoint: mean survival time, dose: 12.5 mg/kg/injection, schedule: Q01DX009 (ip), vehicle: saline with Tween-80 94 % of control and 106 % of control | endpoint: mean survival time, dose: 25.0 mg/kg/injection, schedule: Q01DX009 (ip), vehicle: saline with Tween-80 102 % of control and 112 % of control | endpoint: mean survival time, dose: 50.0 mg/kg/injection, schedule: Q01DX009 (ip), vehicle: saline with Tween-80 100 % of control and 110 % of control | [7] 93 % of control and 106 % of control | [8] 97 % of control and 100 % of control

CC(C)(O)C(Cl)(Cl)Cl
inactive: [10] 97 % of control | [11] 95 % of control | [12] 107 % of control

Nc1nc(Cl)cc(-c2ccccc2)n1
inactive: [1] 102 % of control | [2] 90 % of control | [3] 90 % of control

O=C1CCCCCCCC1O (stereo unspecified)
inactive: [7] 95 % of control | [8] 94 % of control | [9] 105 % of control

CSc1nc(NC2OCC(O)C(O)C2O)c(Br)c(=O)n1C (stereo unspecified)
inactive: endpoint: median survival time, dose: 12.5 mg/kg/injection, schedule: Q01DX005 (ip), vehicle: saline with Tween-80 98 % of control | endpoint: median survival time, dose: 25.0 mg/kg/injection, schedule: Q01DX005 (ip), vehicle: saline with Tween-80 100 % of control | endpoint: median survival time, dose: 50.0 mg/kg/injection, schedule: Q01DX005 (ip), vehicle: saline with Tween-80 101 % of control | endpoint: median survival time, dose: 100.0 mg/kg/injection, schedule: Q01DX005 (ip), vehicle: saline with Tween-80 102 % of control | endpoint: median survival time, dose: 200.0 mg/kg/injection, schedule: Q01DX005 (ip), vehicle: saline with Tween-80 98 % of control

CC(CNC1CCCCC1)OC(=O)c1ccc(N(C)C)cc1 (stereo unspecified)
inactive: endpoint: mean survival time, dose: 75.0 mg/kg/injection, schedule: Q01DX001 (ip), vehicle: saline 99 % of control | endpoint: mean survival time, dose: 150.0 mg/kg/injection, schedule: Q01DX001 (ip), vehicle: saline 100 % of control
